Measurements as given in patent US20090270626A1, “STABLE BISTHIOL COMPOUNDS FOR RA[…] THERAPY” (Organix, Inc., priority 2008, published 2009).
Structures can show the parent of a compound that is named as a salt.

Experiment: Stability of the deprotected bisthiol measured by HPLC with UV and mass detection
Format: physicochemical
Conditions: room temperature
Method: Stability of compound O-5648 (see Example 1, above) was measured by HPLC with UV and mass detection. The bisthiol free base was stable up to 100 hours at room temperature in methanol exposed to air.
The bisthiol dihydrochloride salt was stable in MeOH up to 150 hours at room temperature.
The solid bisthiol dihydrochloride salt exposed to air was stable for >170 hours at room temperature.

SMILES: CCC(=O)C1C2CC[C@H](C[C@H]1c1ccc(F)cc1)N2CCCN(CCS)CC(=O)NCCS (stereo partly drawn) [O-5648, N-[2-(3′-N′-Propyl-(1″R)-3″α-(4-fluorophenyl)tropane-2″β-(1-propanoyl)-[(2-mercapto-ethyl)-amino]-(2-mercapto-ethyl-acetamide, dihydrochloride salt]
- time stable (bisthiol dihydrochloride salt in MeOH) (bisthiol dihydrochloride salt, in MeOH): up to 150 hours
- time stable (bisthiol free base in methanol) (bisthiol free base, in methanol exposed to air): up to 100 hours
- time stable (solid bisthiol dihydrochloride salt) (solid bisthiol dihydrochloride salt exposed to air): > 170 h
